biological target: T1, h FPR2 (Homo sapiens, UniProt P25090); assay: Agonistic activity in hFPR2-Aq-CHO cells (FLIPR Calcium 5 fluorescence assay); assay type: cell-based; conditions: 11 point half log dilution, final assay concentration from 10µM
T1 construct: expressed in transfected cells
T1 sequence (P25090 1-351): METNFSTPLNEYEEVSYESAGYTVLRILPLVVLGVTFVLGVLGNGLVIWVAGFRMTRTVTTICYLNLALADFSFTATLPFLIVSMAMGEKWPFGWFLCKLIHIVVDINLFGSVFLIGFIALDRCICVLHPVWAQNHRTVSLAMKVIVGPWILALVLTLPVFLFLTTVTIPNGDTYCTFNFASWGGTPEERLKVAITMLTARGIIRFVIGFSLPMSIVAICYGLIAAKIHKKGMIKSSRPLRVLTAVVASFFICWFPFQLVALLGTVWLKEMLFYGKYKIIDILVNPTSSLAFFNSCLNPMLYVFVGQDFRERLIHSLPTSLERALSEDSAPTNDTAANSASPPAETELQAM
Procedure, shortened: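 hFPR2-Aq-CHO cells were loaded with Calcium 5 dye for 30 min at 37 °C and equilibrated 10 min at room temperature. Compound (11 points, 10 µM to 100 pM final) was added in HBSS/HEPES/probenecid buffer pH 7.4. Fluorescence rise over basal across 5 min, relative to no-compound wells, gave EC50.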

| EC50 | SMILES |
| --- | --- |
| 27 nM | COc1ccc([C@@H]2CN(C(=O)CCO)CC[C@H]2NC(=O)Nc2ccc(Cl)cc2)nc1 (relative stereo) [Ex-102, trans-1-(4-chloro-phenyl)-3-[1'-(3-hydroxy-propionyl)-5-methoxy-1',2',3',4',5',6'-hexahydro-[2,3']bipyridinyl-4'-yl]-urea] |
| 0.7 nM | COCCCN1CC[C@@H](NC(=O)Nc2ccc(Cl)cc2)[C@H](c2ccc(OC)cn2)C1 (single isomer, unassigned) [Ex-191, trans-1-(4-chlorophenyl)-3-[1-(3-methoxypropyl)-3-(5-methoxypyridin-2-yl)piperidin-4-yl]urea] |
| 0.4 nM | COc1ccc([C@@H]2CN(CC3CCN(C)CC3)CC[C@H]2NC(=O)Nc2ccc(Cl)cc2)nc1 (relative stereo) [Ex-147, trans-1-(4-Chlorophenyl)-3-[3-(5-methoxy-pyridin-2-yl)-1-[(1-methyl-piperidin-4-yl)-methyl]-piperidin-4-yl]-urea] |
| 0.9 nM | COc1cnc([C@@H]2CN(CC3CCC(O)CC3)CC[C@H]2NC(=O)Nc2ccc(Cl)cc2)c(F)c1 (relative stereo) [Ex-221, trans-1-(4-chloro-phenyl)-3-[3-fluoro-1'-(4-hydroxy-cyclohexylmethyl)-5-methoxy-1',2',3',4',5',6'-hexahydro-[2,3']bipyridinyl-4'-yl]-urea] |
| 9 nM | COc1ccc([C@@H]2CN(CC3CC(C)(O)C3)CC[C@H]2NC(=O)Nc2ccc(Cl)cc2)nc1 (relative stereo) [Ex-207, trans-1-(4-chloro-phenyl)-3-[1'-(3-hydroxy-3-methyl-cyclobutylmethyl)-5-methoxy-1',2',3',4',5',6'-hexahydro-[2,3']bipyridinyl-4'-yl]-urea] |
| 1.4 nM | COc1ccc([C@@H]2CN(CC(F)F)CC[C@H]2NC(=O)Nc2ccc(C#N)cc2)nc1 (single isomer, unassigned) [Ex-174, trans-1-(4-Cyano-phenyl)-3-[1-(2,2-difluoro-ethyl)-3-(5-methoxy-pyridin-2-yl)-piperidin-4-yl]-urea] |
| 4 nM | CNCC(=O)N1CC[C@@H](NC(=O)Nc2ccc(Cl)cc2)[C@H](c2ccc(OC)cn2)C1 (relative stereo) [Ex-96, trans-1-(4-chloro-phenyl)-3-[5-methoxy-1'-(2-methylamino-acetyl)-1',2',3',4',5',6'-hexahydro-[2,3']bipyridinyl-4'-yl]-urea] |
| 1.05 nM | COc1cnc([C@@H]2CN(CCN(C)C)CC[C@H]2NC(=O)Nc2ccc(Cl)cc2)c(F)c1 (relative stereo) [Ex-213, trans-1-(4-chloro-phenyl)-3-[1'-(2-dimethylamino-ethyl)-3-fluoro-5-methoxy-1',2',3',4',5',6'-hexahydro-[2,3']bipyridinyl-4'-yl]-urea] |
| 5 nM | COc1ccc([C@@H]2CN(c3ccnc(C)n3)CC[C@H]2NC(=O)Nc2ccc(Cl)cc2)nc1 (relative stereo) [Ex-210, trans-1-(4-chloro-phenyl)-3-[5-methoxy-1'-(2-methyl-pyrimidin-4-yl)-1',2',3',4',5',6'-hexahydro-[2,3']bipyridinyl-4'-yl]-urea] |
| 7 nM | O=C(Nc1ccc(Cl)cc1)NC1CC(=O)N(c2ccc(F)cc2)CC1c1ccc(Cl)cn1 (single isomer, unassigned) [Ex-15, 1-(4-chlorophenyl)-3-[5-(5-chloropyridin-2-yl)-1-(4-fluorophenyl)-2-oxopiperidin-4-yl]urea] |
| 0.3 nM | COc1ccc([C@@H]2CN(CC(N)=O)CC[C@H]2NC(=O)Nc2ccc(Cl)cc2)nc1 (single isomer, unassigned) [Ex-170, trans-2-[4-[[(4-Chlorophenyl)-carbamoyl]amino]-3-(5-methoxy-pyridin-2-yl)-piperidin-1-yl]-acetamide] |
| 2 nM | Cc1ncc(CN2CC[C@@H](NC(=O)Nc3ccc(Cl)cc3)[C@H](c3ccc(Cl)s3)C2)cn1 (relative stereo) [Ex-76, trans-1-(4-chlorophenyl)-3-[3-(5-chlorothiophen-2-yl)-1-[(2-methylpyrimidin-5-yl)methyl]piperidin-4-yl]urea] |
| 0.4 nM | COc1ccc([C@@H]2CN(Cc3ccn(S(C)(=O)=O)n3)CC[C@H]2NC(=O)Nc2ccccc2)nc1 (single isomer, unassigned) [Ex-58, trans-3-[1-[(1-methanesulfonyl-1H-pyrazol-3-yl)methyl]-3-(5-methoxypyridin-2-yl)piperidin-4-yl]-1-phenylurea] |
| 0.4 nM | COCCN1CC[C@@H](NC(=O)Nc2ccc(Cl)cc2)[C@H](c2ncc(OC)cc2F)C1 (relative stereo) [Ex-198, trans-1-(4-chloro-phenyl)-3-[3-fluoro-5-methoxy-1'-(2-methoxy-ethyl)-1',2',3',4',5',6'-hexahydro-[2,3']bipyridinyl-4'-yl]-urea] |
| 0.6 nM | COc1ccc([C@@H]2CN(CC3(OC)CC3)CC[C@H]2NC(=O)Nc2ccc(Cl)cc2)nc1 (relative stereo) [Ex-201, trans-1-(4-chloro-phenyl)-3-[5-methoxy-1'-(1-methoxy-cyclopropylmethyl)-1',2',3',4',5',6'-hexahydro-[2,3']bipyridinyl-4'-yl]-urea] |
| 1 nM | COc1ccc([C@@H]2CN(Cc3ccn(S(C)(=O)=O)n3)CC[C@H]2NC(=O)Nc2ccc(Cl)cc2)nc1 (single isomer, unassigned) [Ex-42, trans-1-(4-chlorophenyl)-3-[1-[(1-methanesulfonyl-1H-pyrazol-3-yl)methyl]-3-(5-methoxypyridin-2-yl)piperidin-4-yl]urea] |
| 0.8 nM | Cc1cc(NC(=O)N[C@@H]2CCN(c3cnccn3)C[C@H]2c2ccc(Cl)cn2)sn1 (relative stereo) [Ex-19, trans-1-(5-chloro-1'-pyrazin-2-yl-1',2',3',4',5',6'-hexahydro-[2,3']bipyridinyl-4'-yl)-3-(3-methyl-isothiazol-5-yl)-urea] |
| 4 nM | O=C(Nc1ccc(Cl)cc1)N[C@@H]1CCN(C(=O)C2CCNCC2)C[C@H]1c1ccc(Cl)s1 (relative stereo) [Ex-130, trans-1-(4-Chlorophenyl)-3-[3-(5-chloro-thiophen-2-yl)-1-(piperidine-4-carbonyl)-piperidin-4-yl]-urea] |
| 4 nM | COc1ccc([C@@H]2CN(CC3CC(O)C3)CC[C@H]2NC(=O)Nc2ccc(Cl)cc2)nc1 (single isomer, unassigned) [Ex-205, trans-1-(4-chloro-phenyl)-3-[1'-(3-hydroxy-cyclobutylmethyl)-5-methoxy-1',2',3',4',5',6'-hexahydro-[2,3']bipyridinyl-4'-yl]-urea] |
| 1.3 nM | COc1ccc([C@@H]2CN(CC3(O)COC3)CC[C@H]2NC(=O)Nc2ccc(Cl)cc2)nc1 (relative stereo) [Ex-194, trans-1-(4-chloro-phenyl)-3-[1'-(3-hydroxy-oxetan-3-ylmethyl)-5-methoxy-1',2',3',4',5',6'-hexahydro-[2,3']bipyridinyl-4'-yl]-urea] |

same assay, conditions: agonistic response at 0.1µM

| activation at 0.1 µM | SMILES |
| --- | --- |
| 28% | Cc1cc(CN2CC[C@@H](NC(=O)Nc3ccc(Cl)cc3)[C@H](c3ccc(Cl)cn3)C2)no1 (relative stereo) [Ex-23, trans-1-(4-chlorophenyl)-3-[3-(5-chloropyridin-2-yl)-1-[(5-methyl-1,2-oxazol-3-yl)methyl]piperidin-4-yl]urea] |

— patent publication EP3789378A1, “PIPERIDINES OR PIPERIDONES SUBSTITUTED WITH UREA AND HETEROARYL” (Grünenthal GmbH, priority 2019, dated 2021)
